Target: T1, Human complement C1s enzyme (Homo sapiens, UniProt P09871)
T1 construct: purified from human serum, Complement Technology, Inc; purchased Complement Technology, Inc; host or cells: human serum (plasma-derived native protein)
T1 sequence (P09871 438-688 limits assumed): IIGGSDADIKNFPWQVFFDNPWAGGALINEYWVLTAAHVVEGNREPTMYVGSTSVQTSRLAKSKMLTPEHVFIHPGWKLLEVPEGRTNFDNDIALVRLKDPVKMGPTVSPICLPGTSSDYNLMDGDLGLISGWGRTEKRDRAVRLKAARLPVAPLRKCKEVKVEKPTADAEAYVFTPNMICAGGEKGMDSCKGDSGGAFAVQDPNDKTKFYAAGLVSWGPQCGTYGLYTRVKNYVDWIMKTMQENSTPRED
T1 sequence (P09871 16-437 partner limits assumed): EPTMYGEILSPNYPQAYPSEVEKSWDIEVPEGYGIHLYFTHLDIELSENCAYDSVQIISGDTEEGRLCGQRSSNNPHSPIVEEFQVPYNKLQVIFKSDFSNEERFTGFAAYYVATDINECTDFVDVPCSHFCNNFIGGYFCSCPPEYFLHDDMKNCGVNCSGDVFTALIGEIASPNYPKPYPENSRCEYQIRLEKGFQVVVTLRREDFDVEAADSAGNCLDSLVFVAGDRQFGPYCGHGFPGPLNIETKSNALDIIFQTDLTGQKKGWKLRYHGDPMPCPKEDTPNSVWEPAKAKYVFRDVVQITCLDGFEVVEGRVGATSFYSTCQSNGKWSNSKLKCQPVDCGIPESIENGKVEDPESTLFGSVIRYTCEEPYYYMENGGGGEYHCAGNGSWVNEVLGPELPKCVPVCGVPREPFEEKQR
Experiment: Human C1s enzyme assay
Assay type: biochemical
Details: human complement C1s enzyme 1.16 nM, substrate Z-L-Lys-SBzl, A405; read-out: IC50 (Stars)
How it was run: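 Serum-purified human C1s (1.16 nM final) preincubated 5 min at room temperature with compound in 50 mM Tris, 1 M NaCl, pH 7.5. Z-L-Lys-SBzl and DTNB added at 100 μM each; A405 recorded every 30 s. IC50 from nonlinear regression of reaction rates versus compound concentration.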

Structure (SMILES) | IC50
O=C(Cn1c(-c2ccccc2)ncc(NC(=O)c2ccc(-c3ccccc3)s2)c1=O)NCc1ccc(Cl)s1 [Compound 278, N-(1-(2-(((5-chlorothiophen-2-yl)methyl)amino)-2-oxoethyl)-6-oxo-2-phenyl-1,6-dihydro-pyrimidin-5-yl)-5-phenylthio-phene-2-carboxamide] | > 1000 nM
O=C(Cn1c(-c2ccc(N3CCOCC3)nc2)ncc(NCc2ccc3oc4ccccc4c3c2)c1=O)NCc1cc2cnccc2[nH]1 [Compound 279, N-((1H-pyrrolo[3,2-c]pyridin-2-yl)methyl)-2-(5-((dibenzo [b,d]furan-2-ylmethyl)amino)-2-(6-morpholinopyridin-3-yl)-6-oxopyrimidin-1(6H)-yl)-acetamide] | < 100 nM
O=C(Cn1c(-c2ccc(OC3CCOCC3)cc2)ncc(NCc2ccc3oc4ccccc4c3c2)c1=O)NCc1cc2cnccc2[nH]1 [Compound 280, N-((1H-pyrrolo[3,2-c]pyridin-2-yl)methyl)-2-(5-((dibenzo [b,d]furan-2-ylmethyl)amino)-6-oxo-2-(4-((tetrahydro-2H-pyran-4-yl)oxy)phenyl)pyrimi-din-1(6H)-yl)acetamide] | < 100 nM
O=C(Cn1c(N2CC(F)(F)C2)ncc(NCc2ccc3oc4ccccc4c3c2)c1=O)NCc1cc2cnccc2[nH]1 [Compound 281, N-((1H-pyrrolo[3,2-c]pyridin-2-yl)methyl)-2-(5-((dibenzo [b,d]furan-2-ylmethyl)amino)-2-(3,3-difluoroazetidin-1-yl)-6-oxopyrimidin-1(6H)-yl)acet-amide] | < 100 nM
C[C@H](Nc1cnc(N2CCCCC2)n(CC(=O)NCc2cc3cnccc3[nH]2)c1=O)c1ccc2oc3ccccc3c2c1 [Compound 284, (S)-N-((1H-pyrrolo[3,2-c]pyr-idin-2-yl)methyl)-2-(5-((1-(dibenzo[b,d]furan-2-yl)ethyl)-amino)-6-oxo-2-(piperidin-1-yl)pyrimidin-1(6H)-yl)acet-amide] | < 100 nM
Cn1cc(-c2ncc(NCc3ccc4oc5ccccc5c4c3)c(=O)n2CC(=O)NCc2cc3cnccc3[nH]2)cn1 [Compound 287, N-((1H-pyrrolo[3,2-c]pyridin-2-yl)methyl)-2-(5-((dibenzo [b,d]furan-2-ylmethyl)amino)-2-(1-methyl-1H-pyrazol-4-yl)-6-oxopyrimidin-1(6H)-yl)-acetamide] | < 100 nM
C[C@H](Nc1cnc(-c2ccc(O[C@@H]3CO[C@H]4[C@@H]3OC[C@H]4O)cc2)n(CC(=O)NCc2cc3cnccc3[nH]2)c1=O)c1ccc2oc3ccccc3c2c1 [Compound 288, N-((1H-pyrrolo[3,2-c]pyridin-2-yl)methyl)-2-(5-(((S)-1-(dibenzo[b,d]furan-2-yl)ethyl)-amino)-2-(4-(((3R,3aR,6R, 6aR)-6-hydroxyhexahydrofuro [3,2-b]furan-3-yl)oxy)phenyl)-6-oxopyrimidin-1(6H)-yl)acet-amide] | < 100 nM
O=C(Cn1c(-c2ccncc2)ncc(NCc2ccc3oc4ccccc4c3c2)c1=O)NCc1cc2cnccc2[nH]1 [Compound 289, N-((1H-pyrrolo[3,2-c]pyridin-2-yl)methyl)-2-(5-((dibenzo [b,d]furan-2-ylmethyl)amino)-6-oxo-2-(pyridin-4-yl)pyrimi-din-1(6H)-yl)acetamide] | < 100 nM
C[C@@H](Nc1cnc(-c2ccccc2)n(CC(=O)N[C@H](C)c2cc3cnccc3[nH]2)c1=O)c1ccc2oc3ccccc3c2c1 [Compound 294, N-((R)-1-(1H-pyrrolo[3,2-c]pyridin-2-yl)ethyl)-2-(5-(((R)-1-(dibenzo[b,d]furan-2-l)ethyl)-amino)-6-oxo-2-phenylpyrimi-din-1(6H)-yl)acetamide] | 100 to 1000 nM
C[C@H](Nc1cnc(N2CCOCC2)n(CC(=O)NCc2cc3cnccc3[nH]2)c1=O)c1ccc2oc3ccccc3c2c1 [Compound 295, (S)-N-((1H-pyrrolo[3,2-c]pyr-idin-2-yl)methyl)-2-(5-((1-(dibenzo[b,d]furan-2-yl)ethyl)-amino)-2-morpholino-6-oxo-pyrimidin-1(6H)-yl)acetamide] | < 100 nM

More lines, now with the values ahead:

IC50 | Structure (SMILES)
< 100 nM | C[C@H](Nc1ncc(-c2ccccc2)n(CC(=O)NCc2cc3cnccc3[nH]2)c1=O)c1ccc2oc3ccccc3c2c1 [Compound 282, (S)—N-((1H-pyrrolo[3,2-c]pyridine-2-yl)methyl)-2-(3-((1-(dibenzo[b,d]furan-2-yl)ethyl)amino)-2-oxo-6-phenylpyrazin-1(2H)-yl)acetamide]
< 100 nM | C[C@H](Nc1cnc(-c2cnn(C)c2)n(CC(=O)NCc2cc3cnccc3[nH]2)c1=O)c1ccc2oc3ccccc3c2c1 [Compound 283, (S)-N-((1H-pyrrolo[3,2-c]pyr-idin-2-yl)methyl)-2-(5-((1-(dibenzo[b,d]furan-2-yl)ethyl)-amino)-2-(1-methyl-1H-pyr-azol-4-yl)-6-oxopyrimidin-1(6H)-yl)acetamide]
< 100 nM | C[C@H](Nc1cnc(-c2ccccn2)n(CC(=O)NCc2cc3cnccc3[nH]2)c1=O)c1ccc2oc3ccccc3c2c1 [Compound 285, (S)—N-((1H-pyrrolo[3,2-c]pyridine-2-yl)methyl)-2-(5-((1-(dibenzo[b,d]furan-2-yl)ethyl)amino)-6-oxo-2-(pyridine-2-yl)pyrimidin-1(6H)-yl)acetamide]
< 100 nM | C[C@H](Nc1cnc(-c2cccs2)n(CC(=O)NCc2cc3cnccc3[nH]2)c1=O)c1ccc2oc3ccccc3c2c1 [Compound 286, (S)-N-((1H-pyrrolo[3,2-c]pyr-idin-2-yl)methyl)-2-(5-((1-(dibenzo[b,d]furan-2-yl)ethyl)-amino)-6-oxo-2-(thiophen-2-yl)pyrimidin-1(6H)-yl)acet-amide]
100 to 1000 nM | C[C@@H](Nc1cnc(-c2ccc(=O)n(C)c2)n(CC(=O)NCc2cc3cnccc3[nH]2)c1=O)c1ccc2oc3ccccc3c2c1 [Compound 290, (R)-N-((1H-pyrrolo[3,2-c]pyr-idin-2-yl)methyl)-2-(5-((1-(dibenzo[b,d]furan-2-yl)ethyl)-amino)-2-(1-methyl-6-oxo-1,6-dihydropyridin-3-yl)-6-oxopyr-imidin-1(6H)-yl)acetamide]
< 100 nM | C[C@@H](Nc1cnc(C2=CCOCC2)n(CC(=O)NCc2cc3cnccc3[nH]2)c1=O)c1ccc2oc3ccccc3c2c1 [Compound 291, (R)-N-((1H-pyrrolo[3,2-c]pyr-idin-2-yl)methyl)-2-(5-((1-(dibenzo[b,d]furan-2-yl)ethyl)-amino)-2-(3,6-dihydro-2H-pyran-4-yl)-6-oxopyrimidin-1(6H)-yl)acetamide]
< 100 nM | Cc1cccc(-c2ncc(N[C@H](C)c3ccc4oc5ccccc5c4c3)c(=O)n2CC(=O)NCc2cc3cnccc3[nH]2)c1 [Compound 292, (R)-N-((1H-pyrrolo[3,2-c]pyr-idin-2-yl)methyl)-2-(5-((1-(dibenzo[b,d]furan-2-yl)ethyl)-amino)-6-oxo-2-(m-tolyl)pyr-imidin-1(6H)-yl)acetamide]
< 100 nM | C[C@@H](Nc1cnc(-c2cccc(Cl)c2)n(CC(=O)NCc2cc3cnccc3[nH]2)c1=O)c1ccc2oc3ccccc3c2c1 [Compound 293, (R)-N-((1H-pyrrolo[3,2-c]pyr-idin-2-yl)methyl)-2-(2-(3-chlorophenyl)-5-((1-(dibenzo [b,d]furan-2-yl)ethyl)amino)-6-oxopyrimidin-1(6H)-yl)acet-amide]

— patent US20260184707A1, “PHARMACEUTICAL COMPOUNDS FOR THE TREATMENT OF COMPLEMENT MEDIATED DISORDERS” (ALEXION PHARMACEUTICALS, INC., priority 2022, published 2026)
